We go through 15 compounds from patent publication US10723733B2, “Hepatitis B antiviral agents” (Enanta Pharmaceuticals, Inc., priority 2017, dated 2020).

For orientation: EC50 means the concentration that produces a half-maximal response. Read a low EC50 as greater potency. The CC50 is the concentration at which the toxic effect on the cells reaches its halfway point. Read a low CC50 as greater toxicity to the cells.

Series [1] concerns HBV. The experiment in a line: HepAD38 antiviral assay: reduction of viral product accumulation (virion DNA by qPCR, HBsAg/HBeAg by ELISA). In kind it is cell-based. Particulars: Hepatitis B virus, 120 h; HepAD38 cells; 50% reduction of viral product accumulation vs no drug controls; five days after compound addition; class symbols. The procedure, abridged:
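Tetracycline-free HepAD38 cells, 35,000/well, treated with DMSO compounds diluted 1:200 for 5 days, or 8 days with media and compound refreshed on d2 and d5. Virion DNA by qPCR, HBsAg/HBeAg by ELISA; EC50 is 50% reduction versus no-drug controls, binned A<0.1 μM, B 0.1-1 μM, C>1 μM.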
On the technique in general: In qPCR the cycle at which signal appears reflects the starting amount.

A short description of series [2]: Compound toxicity, ATPLite total ATP levels. In kind it is cell-based. Particulars: human, HepG2 cells, 50% reduction of total ATP levels (ATPLite), three days after compound addition. The procedure: Compound toxicity is evaluated by seeding cells at 15,000 cells/well and treating with compound as described above.
(Cellular ATP, detected with luciferase, serves as a proxy for viable cell number.)

Turning to `O=S(=O)(N[C@H]1CC2=C(c3cnn(C(F)F)c3)[C@H](c3ccc(F)cc3Cl)N=C(c3nccs3)N2C1)C1CC1` [Example 1], the EC50 in series [1] was < 100 nM. For the same compound, the CC50 at 3 days in series [2] is > 25000 nM.

On to `O=S(=O)(N[C@H]1CC2=C(c3ccn(C4CC4)n3)[C@H](c3ccc(F)cc3Cl)N=C(c3nccs3)N2C1)C1CC1` [Example 3], for which the EC50 in series [1] was < 100 nM. Besides, in series [2], the CC50 at 3 days was > 25000 nM.

For the compound `O=S(=O)(N[C@H]1CC2=C(c3cnn(C4CC4)c3)[C@H](c3ccc(F)cc3Cl)N=C(c3nccs3)N2C1)C1CC1` [Example 6], in series [1], the EC50 is < 100 nM. The CC50 at 3 days in series [2] is > 25000 nM.

Take `O=S(=O)(N[C@H]1CC2=C(c3cnn(C(F)(F)F)c3)[C@H](c3ccc(F)cc3Cl)N=C(c3nccs3)N2C1)C1CC1` [Example 8]: the EC50 in series [1] is < 100 nM. Further, the CC50 at 3 days in series [2] was in the range of 10000 to 25000 nM.

Take `NS(=O)(=O)N[C@H]1CC2=C(c3cnn(C(F)F)c3)[C@H](c3ccc(F)cc3Cl)N=C(c3nccs3)N2C1` [Example 9]: the EC50 in series [1] was < 100 nM. Further, in series [2], the CC50 at 3 days is > 25000 nM.

Turning to `CS(=O)(=O)N[C@H]1CC2=C(c3cnn(C(F)F)c3)[C@H](c3ccc(F)cc3Cl)N=C(c3nccs3)N2C1` [Example 10], in series [1], the concentration giving a half-maximal response (EC50) is < 100 nM. Moreover, the CC50 at 3 days in series [2] was > 25000 nM.

As to `CNS(=O)(=O)N[C@H]1CC2=C(c3cnn(C(F)F)c3)[C@H](c3ccc(F)cc3Cl)N=C(c3nccs3)N2C1` [Example 11], the EC50 in series [1] was < 100 nM. For the same compound, the CC50 at 3 days in series [2] was > 25000 nM.

Turning to `O=S(=O)(NC1CC1)N[C@H]1CC2=C(c3cnn(C(F)F)c3)[C@H](c3ccc(F)cc3Cl)N=C(c3nccs3)N2C1` [Example 12], the half-maximal effective concentration (EC50) in series [1] was < 100 nM. The CC50 at 3 days in series [2] lay in the range of 10000 to 25000 nM.

Regarding `CN(C)S(=O)(=O)N[C@H]1CC2=C(c3cnn(C(F)F)c3)[C@H](c3ccc(F)cc3Cl)N=C(c3nccs3)N2C1` [Example 13], the EC50 in series [1] was < 100 nM. In series [2], the CC50 at 3 days is > 25000 nM.

As for `O=S(=O)(N[C@H]1CC2=C(c3cnn(C(F)F)c3)[C@H](c3ccc(F)cc3Cl)N=C(c3nccs3)N2C1)C1CCOCC1` [Example 56], the EC50 in series [1] is < 100 nM. In addition, the CC50 at 3 days in series [2] was > 25000 nM.

Regarding `COCCS(=O)(=O)N[C@H]1CC2=C(c3cnn(C(F)F)c3)[C@H](c3ccc(F)cc3Cl)N=C(c3nccs3)N2C1` [Example 57], the EC50 in series [1] is < 100 nM. The CC50 at 3 days in series [2] is > 25000 nM.

As to `COC(=O)N[C@]1(CO)CC2=C(c3ccn(C(F)F)n3)[C@H](c3ccc(F)cc3Cl)N=C(c3nccs3)N2C1` [Example 61], the EC50 in series [1] was < 100 nM. For the same compound, in series [2], the CC50 at 3 days was > 25000 nM.

`O=C1N[C@@](CO)(CC2=C(c3ccn(C(F)F)n3)[C@H](c3ccc(F)cc3Cl)N=C(c3nccs3)N2)CO1` [Example 94]: the EC50 in series [1] is < 100 nM. The CC50 at 3 days in series [2] was > 25000 nM.

On to `OC[C@]1(F)CC2=C(c3cnn(C(F)F)c3)[C@H](c3ccc(F)cc3Cl)N=C(c3nccs3)N2C1` [Example 148], for which the EC50 in series [1] was in the range of 100 to 1000 nM.

Take `OC[C@@]1(F)CC2=C(c3cnn(C(F)F)c3)[C@H](c3ccc(F)cc3Cl)N=C(c3nccs3)N2C1` [Example 149]: in series [1], the EC50 fell in the range of 100 to 1000 nM.
